In experiment [1] the target is T1, Pin1 (Homo sapiens, UniProt Q13526). As to the kind of experiment: Fluorescence polarization (FP) assay, binding to Pin1. The conditions noted are these: for Ki: 1 h incubation with Pin1, read-out: Ki (binding affinity to Pin1, Kenakin Ki from FP EC50). As to the method:
FIG. 3 is a fluorescence polarization readout following 1 h incubation of the indicated compounds with Pin1. Data points are plotted as the average of n=3 independent samples+SEM. Binding affinity to Pin1 was determined using a fluorescence polarization assay. Ki values obtained from the FP assay results were derived from the Kenakin Ki equation: Kenakin Ki=(Lb)(EC50)(Kd)/(Lo)(Ro)+Lb(Ro−Lo+Lb−Kd), where Kd [M]: Kd of the probe, EC50 [M]: obtained from FP assay, total tracer Lo [M]: probe concentration in FP, bound tracer Lb [M]: 85% of probe concentration binds to target protein, total receptor Ro [M]: Pin1 concentration in the FP assay, as described (Auld et al. Receptor binding assays for HTS and drug discovery. in Assay Guidance Manual eds. Sittampalam, G.S., et al. Eli Lilly & Company and the National Center for Advancing Translational Sciences, 2004).

For experiment [2], the target named is T1, Pin1. As to the kind of experiment: Molt4 cells competition with Pin1-3 desthiobiotin probe, streptavidin pull-down and immunoblot (Pin1 engagement). It counts as cell-based. On the set-up: endogenous in cells; host or cells: Molt4. The conditions noted are these: Molt4 cells treated 5 h, streptavidin pull-down, immunoblot. As to the method: FIG. 4 is an immunoblot displaying the result of Molt4 cells treated in a competition format with the indicated concentrations of Pin1-3, Pin1-3 P1, and Pin1-3 P2 for 5 h, followed by cell lysis, incubation with TM-03-163 (Pin1-3 desthiobiotin), streptavidin pull-down, and immunoblot analysis. […] Molt4 cells were treated in a competition format with Pin1-3, Pin1-3 P1, and Pin1-3 P2 for 5 h, followed by cell lysis, incubation with […] (Pin1-3 desthiobiotin), followed by streptavidin pulldown and immunoblot analysis.
For orientation: Immunoblotting shows a protein as a band on a membrane.

Entries after “also recorded” stand apart in the source; their conditions may differ.

The results in this text go back to patent publication US20240197678A1, “INHIBITORS OF THE PEPTIDYL-PROLYL CIS/TRANS ISOMERASE (PIN1) AND USES THEREOF” (DANA-FARBER CANCER INSTITUTE, INC., priority 2021, published 2024).

T1 sequence (Q13526 whole entry): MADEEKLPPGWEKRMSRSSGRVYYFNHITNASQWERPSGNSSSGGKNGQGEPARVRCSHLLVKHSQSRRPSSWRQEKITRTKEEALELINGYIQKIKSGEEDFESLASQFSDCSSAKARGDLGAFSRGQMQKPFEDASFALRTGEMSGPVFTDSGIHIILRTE

As to `CC(C)(C)CN(C(=O)CCl)C1CCS(=O)(=O)C1` (racemic) [Pin1-3, reference compound], the Ki at Pin1 [1] was ~286 nM.

Turning to `CC(C)(C)CN(C(=O)CCl)[C@@H]1CCS(=O)(=O)C1` (single isomer, unassigned) [Pin1-3 P1], on Pin1 [1], the Ki is ~70 nM. Also, the “Engagement of Pin1 in Molt4 cells” value on Pin1 [2] is “engages Pin1 more potently than Pin1-3”.

`CC(C)(C)CN(C(=O)CCl)[C@H]1CCS(=O)(=O)C1` [Pin1-3 P2, (S)-2-chloro-N-(1,1-dioxidotetrahydrothiophen-3-yl)-N-neopentylacetamide]: on Pin1 [1] (1 h incubation with Pin1), the “Ki (binding affinity to Pin1, Kenakin Ki from FP EC50)” value is given as “unable to be determined”. In addition, the “Engagement of Pin1 in Molt4 cells” value at Pin1 [2] is on record as “did not display engagement; also recorded: no engagement”.

The term Ki denotes the equilibrium dissociation constant of an inhibitor or competing ligand from its target.
